Results published in paper PMC11435058, “Synthesis of New Thiazole-Privileged Chalcones as Tubulin Polymerization Inhibitors with Potential Anticancer Activities” (Pharmaceuticals, 2024).

Key:
[1] = tested on: CCRF-CEM; assay: NCI-60 anticancer screen (SRB; single dose 10 μM and five doses); settings: Homo sapiens; for activity at 10 µM: 48 h, read-out: Growth Percentage; for IC (TGI): read-out: TGI
[2] = tested on: SF-295; assay: NCI-60 anticancer screen (SRB; single dose and five doses); settings: Homo sapiens; for GI50 / IC50: SF-295; for activity at 10 µM: SF-295, 48 h, read-out: Growth Percentage; for CC50: SF-295, read-out: LC50; for IC (TGI): SF-295, read-out: TGI
[3] = tested on: TK-10; assay: as above; settings: Homo sapiens; for GI50 / IC50: TK-10; for CC50: TK-10, read-out: LC50; for IC (TGI): TK-10, read-out: TGI; for activity at 10 µM: TK-10, 48 h, read-out: Growth Percentage
[4] = tested on: M14; assay: as above; settings: Homo sapiens; for GI50 / IC50: M14; for activity at 10 µM: M14, 48 h, read-out: Growth Percentage; for IC (TGI): M14, read-out: TGI
[5] = tested on: HCT-15; assay: as above; settings: Homo sapiens; for GI50 / IC50: HCT-15; for activity at 10 µM: HCT-15, 48 h, read-out: Growth Percentage; for CC50: HCT-15, read-out: LC50; for IC (TGI): HCT-15, read-out: TGI
[6] = tested on: SF-539; assay: as above; settings: Homo sapiens; for GI50 / IC50: SF-539; for activity at 10 µM: SF-539, 48 h, read-out: Growth Percentage; for IC (TGI): SF-539, read-out: TGI
[7] = tested on: tubulin; assay: In vitro tubulin polymerization inhibition assay; format: biochemical; settings: 4 mg/mL tubulin, 37°C, absorbance at 340 nm
Experimental: 4.2.2. In Vitro Tubulin Polymerization Inhibition Assay.
2p, and the reference drug CD -4) with the microtubule system. Specifically, the in vitro inhibition of tubulin polymerization was evaluated for these compounds. The standard tubulin polymerization reaction was carried out, containing 100 μL of 4 mg/mL tubulin in a buffer solution of 80 mM PIPES (pH 6.9), 0.5 mM EGTA, 2 mM MgCl2, and 1 mM GTP. Polymerization was initiated by incubating the reaction […]
Under these conditions, polymerization typically reaches a maximum absorbance of […]
growth, and steady state. In this experimental set up, an absorbance of 0.1 at 340 nm corresponds to approximately 1 mg/mL of polymerized tubulin, meaning that around […]
40% of the tubulin is polymerized, allowing for the detection of both enhancers and inhibitors of polymerization. The inhibitory effect of each compound on tubulin polymerization was quantified by determining the IC50 values, which were reported as the mean ± standard deviation from three independent experiments. […]

[8] = tested on: NCI-H23; assay: NCI-60 anticancer screen (SRB; single dose and five doses); settings: Homo sapiens; for GI50 / IC50: NCI-H23; for activity at 10 µM: NCI-H23, 48 h, read-out: Growth Percentage; for CC50: NCI-H23, read-out: LC50; for IC (TGI): NCI-H23, read-out: TGI

Cc1[nH]c(=S)sc1C(=O)/C=C/c1cccc(Cl)c1 [2e, (E)-3-(3-Chlorophenyl)-1-(4-Methyl-2-Thioxo-2,3-Dihydrothiazol-5-yl)Prop-2-En-1-One] showed a GI50 [1] of 2.45 µM, an IC50 [1] of 3.72 µM and an activity at 10 µM [1] of 15.2%. For the same compound, the IC (TGI) [1] was 7.94 µM, the GI50 [2] was 4.37 µM and the IC50 [2] was 11.5 µM. It also gave an activity at 10 µM [2] of 41.8%, a CC50 [2] of 43.6 µM and an IC (TGI) [2] of 17 µM. The GI50 [3] was 19.5 µM, the IC50 [3] was 45.7 µM and the CC50 [3] was > 100 µM. It also gave an IC (TGI) [3] of 47.9 µM, a GI50 [4] of 2.88 µM and an IC50 [4] of 4.17 µM. The activity at 10 µM [4] was 40.2%, the IC (TGI) [4] was 9.55 µM and the GI50 [5] was 2.09 µM. For the same compound, the IC50 [5] was 3.55 µM, the activity at 10 µM [5] was -22% and the CC50 [5] was 46.8 µM. For the same compound, the IC (TGI) [5] was 5.89 µM, the GI50 [6] was 2 µM and the IC50 [6] was 3.63 µM. It also gave an activity at 10 µM [6] of -10.7%, an IC (TGI) [6] of 4.07 µM and an IC50 [7] of 4.93 µM. It also gave a GI50 [8] of 2.09 µM, an IC50 [8] of 3.63 µM and an activity at 10 µM [8] of 18%. For the same compound, the CC50 [8] was 12.9 µM and the IC (TGI) [8] was 4.68 µM.
With Cc1[nH]c(=S)sc1C(=O)/C=C/c1ccc(Br)cc1 [2g, (E)-3-(4-Bromophenyl)-1-(4-Methyl-2-Thioxo-2,3-Dihydrothiazol-5-yl)Prop-2-En-1-One] the GI50 [1] was 3.06 µM, the activity at 10 µM [1] was -11% and the IC (TGI) [1] was 61.5 µM. For the same compound, the GI50 [2] was 12.7 µM, the activity at 10 µM [2] was 90.4% and the CC50 [2] was 52.7 µM. It also gave an IC (TGI) [2] of 25.8 µM, a GI50 [3] of 3.04 µM and an activity at 10 µM [3] of 37.8%. For the same compound, the CC50 [3] was 35.2 µM, the IC (TGI) [3] was 11.8 µM and the GI50 [4] was 9.02 µM. The activity at 10 µM [4] was 74.5%, the IC (TGI) [4] was 22.9 µM and the GI50 [5] was 2.66 µM. For the same compound, the activity at 10 µM [5] was 5.48%, the CC50 [5] was 36.4 µM and the IC (TGI) [5] was 10 µM. For the same compound, the GI50 [6] was 2 µM, the activity at 10 µM [6] was -25.3% and the IC (TGI) [6] was 4.67 µM. It also gave an IC50 [7] of 18.5 µM, a GI50 [8] of 8.23 µM and an activity at 10 µM [8] of 65%. It also gave a CC50 [8] of 48 µM and an IC (TGI) [8] of 21.3 µM.
With Cc1[nH]c(=S)sc1C(=O)/C=C/c1cccc([N+](=O)[O-])c1 [2h, (E)-1-(4-Methyl-2-Thioxo-2,3-Dihydrothiazol-5-yl)-3-(3-Nitrophenyl)Prop-2-En-1-One] the GI50 [1] was 2.14 µM, the activity at 10 µM [1] was 13.8% and the IC50 ([1]; five-dose, Leukemia CCRF-CEM) was 3.39 µM. The CC50 ([1]; read-out: LC50) was > 100 µM, the IC (TGI) [1] was 6.61 µM and the GI50 [2] was 3.63 µM. The IC50 [2] was 8.71 µM, the activity at 10 µM [2] was 4.14% and the CC50 [2] was 39.8 µM. The IC (TGI) [2] was 14.8 µM, the GI50 [3] was 11.2 µM and the IC50 [3] was 22.9 µM. The CC50 [3] was 50.1 µM, the IC (TGI) [3] was 23.4 µM and the GI50 [4] was 7.08 µM. It also gave an IC50 [4] of 11.8 µM, an activity at 10 µM [4] of 1.86% and a CC50 ([4]; M14, read-out: LC50) of 83.2 µM. For the same compound, the IC (TGI) [4] was 25.7 µM, the GI50 [5] was 2.14 µM and the IC50 [5] was 3.47 µM. For the same compound, the activity at 10 µM [5] was -36.4%, the CC50 [5] was 31.6 µM and the IC (TGI) [5] was 7.76 µM. For the same compound, the GI50 [6] was 2.19 µM, the IC50 [6] was 3.98 µM and the activity at 10 µM [6] was -85.9%. The CC50 ([6]; SF-539, read-out: LC50) was 12.9 µM, the IC (TGI) [6] was 4.9 µM and the IC50 [7] was 12.5 µM. For the same compound, the GI50 [8] was 5.37 µM, the IC50 [8] was 10 µM and the activity at 10 µM [8] was -72.8%. For the same compound, the CC50 [8] was 45.7 µM and the IC (TGI) [8] was 18.2 µM.
Work on COc1cc(/C=C/C(=O)c2sc(=S)[nH]c2C)cc(OC)c1OC [2p, (E)-1-(4-Methyl-2-Thioxo-2,3-Dihydrothiazol-5-yl)-3-(3,4,5-Trimethoxyphenyl)Prop-2-En-1-One] yielded a GI50 [1] of 2.45 µM, an activity at 10 µM [1] of 4.92% and an IC50 ([1]; five-dose, Leukemia CCRF-CEM) of 3.55 µM. The IC (TGI) [1] was 8.71 µM, the GI50 [2] was 5.5 µM and the IC50 [2] was 14.5 µM. It also gave an activity at 10 µM [2] of 42.3%, a CC50 [2] of 66.1 µM and an IC (TGI) [2] of 21.4 µM. It also gave a GI50 [3] of 5.01 µM, an IC50 [3] of 16.2 µM and an activity at 10 µM [3] of 53%. For the same compound, the CC50 [3] was 47.9 µM, the IC (TGI) [3] was 17.8 µM and the GI50 [4] was 3.24 µM. The IC50 [4] was 5.13 µM, the activity at 10 µM [4] was 15.4% and the IC (TGI) [4] was 13.2 µM. For the same compound, the GI50 [5] was 3.24 µM, the IC50 [5] was 4.17 µM and the activity at 10 µM [5] was -3.26%. For the same compound, the CC50 [5] was 74.1 µM, the IC (TGI) [5] was 15.5 µM and the GI50 [6] was 2.19 µM. It also gave an IC50 [6] of 4.47 µM, an activity at 10 µM [6] of -13.9% and an IC (TGI) [6] of 5.5 µM. It also gave an IC50 [7] of 25.1 µM, a GI50 [8] of 2.95 µM and an IC50 [8] of 5.25 µM. It also gave an activity at 10 µM [8] of 7.27%, a CC50 [8] of 44.7 µM and an IC (TGI) [8] of 10.5 µM.
